Results reported in paper PMC5853561, “Affinity purification with metabolomic and proteomic analysis unravels diverse roles of nucleoside diphosphate kinases” (Journal of Experimental Botany, 2017).

How the values were obtained:
[1] = biological target: T1, NDPK1 recombinant protein (AtNDPK1) (Arabidopsis thaliana, UniProt P39207); assay: coupled pyruvate kinase-lactate dehydrogenase assay, NADH at […] nm; type: biochemical; settings: inhibitor; 500 uM cGMP; ATP and 4 mM TDP as substrates
T1 construct: gene NDK1; recombinant protein from commercial supplier (MyBioSource)
T1 sequence (P39207 1-149): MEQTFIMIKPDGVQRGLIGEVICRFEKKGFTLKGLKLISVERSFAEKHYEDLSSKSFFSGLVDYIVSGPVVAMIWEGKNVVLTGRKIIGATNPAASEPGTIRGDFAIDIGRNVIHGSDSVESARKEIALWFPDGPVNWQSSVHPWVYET

[2] = biological target: T1, NDPK1 recombinant protein (AtNDPK1); assay: as above; type: biochemical; settings: phosphate acceptor, ATP as donor; 4 mM TDP

| Structure (SMILES) | specific activity, % of control at 500 uM [1] [%] | coupled pyruvate kinase-lactate dehydrogenase assay, NADH at 340 nm [2] |
| --- | --- | --- |
| Nc1nc2c(ncn2[C@@H]2O[C@@H]3COP(=O)(O)O[C@H]3[C@H]2O)c(=O)[nH]1 [3',5'-cGMP] | 51 | – |
| Cc1cn([C@H]2C[C@H](O)[C@@H](COP(=O)(O)OP(=O)(O)O)O2)c(=O)[nH]c1=O [TDP] | – | TDP was used as a NDPK1 substrate and phosphate group acceptor |
